Test results from the NIST ThermoML archive (doi:10.1016/j.fluid.2005.05.012).
Where “and” joins values, the source holds several entries; their conditions need not be identical. Equal entries are not always repeated. Numbers after ± are expanded uncertainties.

Tests used:
[1] = 101.33 kPa, Liquid
[2] = xn = mol fraction of the nth substance listed; conditions: 101.33 kPa, Liquid, x1 = 1

| Compound | mass density ([1]; 293.15 K) | viscosity ([1]; 293.15 K) | mass density ([1]; 298.15 K) | viscosity ([1]; 298.15 K) | mass density ([1]; 303.15 K) | viscosity ([1]; 303.15 K) | mass density ([2]; 293.15 K) | viscosity ([2]; 293.15 K) | mass density ([2]; 298.15 K) | viscosity ([2]; 298.15 K) | mass density ([2]; 303.15 K) | viscosity ([2]; 303.15 K) |
| --- | --- | --- | --- | --- | --- | --- | --- | --- | --- | --- | --- | --- |
| CC(C)CO [2-methyl-1-propanol] | 801.58 ± 0.57 kg/m3 | 3.994 ± 0.044 mPa·s | 798.09 ± 0.57 kg/m3 | 3.334 ± 0.037 mPa·s | 794.09 ± 0.58 kg/m3 | 2.794 ± 0.032 mPa·s |  |  |  |  |  |  |
| CN1CCNCC1 [N-methylpiperazine] | 903.8 ± 0.36 kg/m3 and 903.79 ± 0.36 kg/m3 and 903.78 ± 0.36 kg/m3 | 2.1 ± 0.024 mPa·s | 899.8 ± 0.37 kg/m3 | 1.841 ± 0.021 mPa·s | 894.52 ± 0.38 kg/m3 and 894.54 ± 0.38 kg/m3 and 894.55 ± 0.38 kg/m3 | 1.624 ± 0.019 mPa·s |  |  |  |  |  |  |
| CCCCO [butan-1-ol] | 809.97 ± 0.55 kg/m3 | 2.938 ± 0.033 mPa·s | 806.15 ± 0.56 kg/m3 | 2.572 ± 0.029 mPa·s | 802.14 ± 0.57 kg/m3 | 2.271 ± 0.026 mPa·s |  |  |  |  |  |  |
| CCO [ethanol] | 789.32 ± 0.59 kg/m3 | 1.17 ± 0.014 mPa·s | 785.06 ± 0.6 kg/m3 | 1.078 ± 0.013 mPa·s | 780.68 ± 0.61 kg/m3 | 0.982 ± 0.012 mPa·s |  |  |  |  |  |  |
| CO [methanol] | 791.09 ± 0.59 kg/m3 | 0.593 ± 0.008 mPa·s | 786.48 ± 0.6 kg/m3 | 0.551 ± 0.008 mPa·s | 781.22 ± 0.61 kg/m3 | 0.509 ± 0.008 mPa·s |  |  |  |  |  |  |
| CCCO [propan-1-ol] | 803.79 ± 0.56 kg/m3 | 2.194 ± 0.025 mPa·s | 799.74 ± 0.57 kg/m3 | 1.945 ± 0.023 mPa·s | 795.68 ± 0.58 kg/m3 | 1.73 ± 0.02 mPa·s |  |  |  |  |  |  |
| CCCO [propan-1-ol] + CN1CCNCC1 |  |  |  |  |  |  | 803.79 ± 0.56 kg/m3 | 2.194 ± 0.025 mPa·s | 799.74 ± 0.57 kg/m3 | 1.945 ± 0.023 mPa·s | 795.68 ± 0.58 kg/m3 | 1.73 ± 0.02 mPa·s |
| CC(C)O [propan-2-ol] | 785.84 ± 0.6 kg/m3 | 2.405 ± 0.028 mPa·s | 781.3 ± 0.61 kg/m3 | 2.062 ± 0.024 mPa·s | 777.41 ± 0.61 kg/m3 | 1.782 ± 0.021 mPa·s |  |  |  |  |  |  |
| CC(C)O [propan-2-ol] + CN1CCNCC1 |  |  |  |  |  |  | 785.84 ± 0.6 kg/m3 | 2.405 ± 0.028 mPa·s | 781.3 ± 0.61 kg/m3 | 2.062 ± 0.024 mPa·s | 777.41 ± 0.61 kg/m3 | 1.782 ± 0.021 mPa·s |
